Drawing on US20240382494A1, “THERAPEUTIC COMPOUNDS” (priority 2023, published 2024), this text covers IC50 and CC50 for 24 compounds.

Bounds are passed on as bounds.

For one series, the target named is SARS-CoV-2 PLpro (Severe acute respiratory syndrome coronavirus 2, UniProt P0DTD1). Description: FRET-based PLpro enzymatic assay. The class given is biochemical. The following applies: 200 nM PLpro, 10 μM FRET substrate, 30 min preincubation at 30° C.; read-out: IC50. As to the method:
The SARS-CoV-2 PL^pro enzymatic assays were carried out as follows. The assay was assembled in 96-well plates with 100 μl of 200 nM PL^Pro protein in PL^Pro reaction buffer [50 mM Hepes (pH 7.5), 0.01% Triton X-100, and 5 mM DTT]. Then, 1 μl of testing compound at various concentrations was added to each well and incubated at 30° C. for 30 minutes. The enzymatic reaction was initiated by adding 1 μl of 1 mM FRET substrate (the final substrate concentration is 10 μM). The reaction was monitored in a Cytation 5 image reader with filters for excitation at 360/40 nm and emission at 460/40 nm at 30° C. for 1 hour. The initial velocity of the enzymatic reaction with and without testing compounds was calculated by linear regression for the first 15 minutes of the kinetic progress curve. The IC50 values were calculated by plotting the initial velocity against various concentrations of testing compounds with a dose-response function in Prism 8 software.

A short description of series [1]: Cytotoxicity assay in Vero E6 cells (neutral red uptake). The following applies: African green monkey; Vero E6 cells, 2 days at 37° C., neutral red uptake; read-out: Vero CC50. It is filed as cell-based. As to the method: Briefly, 80.000 cells/ml of the tested cell lines were dispensed into 96-well cell culture plates at 100 μl per well Twenty-four hours later, the growth medium was removed and washed with 150 μl of PBS buffer. Two hundred microliters of fresh serum-free medium containing serial diluted compounds was added to each well. After incubating for 2 days at 37° C., the medium was removed and replaced with 100 μl of DMEM medium containing neutral red (40 μg/ml) and incubated for 2 to 4 hours at 37° C. The amount of neutral red taken up was determined by measuring the absorbance at 540 nm using a Multiskan FC Microplate Photometer (Thermo Fisher Scientific) The CC50 values were calculated from best-fit dose-response curves with variable slope in Prism 8.

By IC50 is commonly meant the point on the concentration scale where inhibition reaches its midpoint. What is called CC50 is the concentration that lowers cell viability or growth by half.

Turning to `Cc1ccc(OC[C@@H]2CCCN2C)cc1C(=O)N[C@H](C)c1cc(-c2cnn(C)c2)nc2ccccc12` [Example 84, 2-methyl-N—((R)-1-(2-(1-methyl-1H-pyrazol-4-yl)quinolin-4-yl)ethyl)-5-(((S)-1-methylpyrrolidin-2-yl)methoxy)benzamide], the IC50 at SARS-CoV-2 PLpro was < 0.5 µM. Further, the CC50 at 2 days in series [1] was determined as 103 ± 24.4 µM.

`Cc1ccc(OCCN(C)C)cc1C(=O)N[C@H](C)c1cc(-c2cnn(C3CCC3)c2)nc2ccccc12` [Example 64, (R)—N-(1-(2-(1-cyclobutyl-1H-pyrazol-4-yl)quinolin-4-yl)ethyl)-5-(2-(dimethylamino)ethoxy)-2-methylbenzamide]: the IC50 on SARS-CoV-2 PLpro was < 0.5 µM. The CC50 at 2 days in series [1] was 25.3 ± 5.82 µM.

Regarding `Cc1ccc(N2C[C@H]3CN(C)C[C@H]3C2)cc1C(=O)N[C@H](C)c1cc(-c2ccn(C)n2)nc2ccccc12` [Example 103, 2-methyl-N—((R)-1-(2-(1-methyl-1H-pyrazol-3-yl)quinolin-4-yl)ethyl)-5-((3aR,6aS)-5-methylhexahydropyrrolo[3,4-c]pyrrol-2(1H)-yl)benzamide], the IC50 on SARS-CoV-2 PLpro was < 0.5 µM. Also, the CC50 at 2 days in series [1] was 27.3 ± 1.74 µM.

`Cc1ccc(OCCN(C)C)cc1C(=O)N[C@@H](C)c1cc(-c2cccs2)nc2ccccc12` [Example 2, (S)-5-(2-(dimethylamino)ethoxy)-2-methyl-N-(1-(2-(thiophen-2-yl)quinolin-4-yl)ethyl)benzamide]: the IC50 on SARS-CoV-2 PLpro lay within 1 to 5 µM. In addition, the CC50 at 2 days in series [1] was found to be 11.4 ± 0.79 µM.

Turning to `Cc1ccc(OCCN(C)C)cc1C(=O)N[C@H](C)c1cc(-c2ccc(CN3CCOCC3)s2)nc2ccccc12` [Example 16, (R)-5-(2-(dimethylamino)ethoxy)-2-methyl-N-(1-(2-(5-(morpholinomethyl)thiophen-2-yl)quinolin-4-yl)ethyl)benzamide], at SARS-CoV-2 PLpro, the IC50 was < 0.5 µM. In series [1], the CC50 at 2 days was 30.6 ± 10.6 µM.

For `Cc1ccc(OCCN(C)C)cc1C(=O)N[C@H](C)c1cc(-c2ccnn2C)nc2ccccc12` [Example 13, (R)-5-(2-(dimethylamino)ethoxy)-2-methyl-N-(1-(2-(1-methyl-1H-pyrazol-5-yl)quinolin-4-yl)ethyl)benzamide], the IC50 at SARS-CoV-2 PLpro was < 0.5 µM. Besides, in series [1], the CC50 at 2 days was 60 ± 8.43 µM.

For `Cc1ccc(OCCN(C)C)cc1C(=O)N[C@H](C)c1cc(-c2cnn(CC(=O)O)c2)nc2ccccc12` [Example 53, (R)-2-(4-(4-(1-(5-(2-(dimethylamino)ethoxy)-2-methylbenzamido)ethyl)quinolin-2-yl)-1H-pyrazol-1-yl)acetic acid], the IC50 at SARS-CoV-2 PLpro is < 0.5 µM. Moreover, the 50% cytotoxic concentration (CC50) at 2 days in series [1] was > 250 µM.

Regarding `CCn1ccc(-c2cc([C@@H](C)NC(=O)c3cc(N4CCN(C)CC4)ccc3C)c3ccccc3n2)n1` [Example 108, (R)—N-(1-(2-(1-ethyl-1H-pyrazol-3-yl)quinolin-4-yl)ethyl)-2-methyl-5-(4-methylpiperazin-1-yl)benzamide], the IC50 at SARS-CoV-2 PLpro was < 0.5 µM. Besides, the CC50 at 2 days in series [1] was 18.5 ± 1.4 µM.

Regarding `Cc1ccc(OCCN(C)C)cc1C(=O)N[C@H](C)c1cc(-c2cnn(CC(=O)N3CCCC3)c2)nc2ccccc12` [Example 69, (R)-5-(2-(dimethylamino)ethoxy)-2-methyl-N-(1-(2-(1-(2-oxo-2-(pyrrolidin-1-yl)ethyl)-1H-pyrazol-4-yl)quinolin-4-yl)ethyl)benzamide], on SARS-CoV-2 PLpro, the IC50 was < 0.5 µM. Further, the CC50 at 2 days in series [1] stood at 26.4 ± 4.5 µM.

In the case of `Cc1ccc(OC2CN(C)C2)cc1C(=O)N[C@H](C)c1cc(-c2cnn(C)c2)nc2ccccc12` [Example 90, (R)-2-methyl-N-(1-(2-(1-methyl-1H-pyrazol-4-yl)quinolin-4-yl)ethyl)-5-((1-methylazetidin-3-yl)oxy)benzamide], on SARS-CoV-2 PLpro, the IC50 was < 0.5 µM. Further, the CC50 at 2 days in series [1] was 72.5 ± 2.08 µM.

With `Cc1ccc(N2CCC3(CC2)CN(C)C3)cc1C(=O)N[C@H](C)c1cc(-c2cnn(C)c2)nc2ccccc12` [Example 92, (R)-2-methyl-N-(1-(2-(1-methyl-1H-pyrazol-4-yl)quinolin-4-yl)ethyl)-5-(2-methyl-2,7-diazaspiro[3.5]nonan-7-yl)benzamide], on SARS-CoV-2 PLpro, the IC50 was 0.5 to 1 µM. The CC50 at 2 days in series [1] came out at 76.5 ± 2.18 µM.

For the compound `Cc1ccc(OCCN(C)C)cc1C(=O)N[C@@H](C)c1cc(-c2ccnn2C)nc2ccccc12` [Example 21, (S)-5-(2-(dimethylamino)ethoxy)-2-methyl-N-(1-(2-(1-methyl-1H-pyrazol-5-yl)quinolin-4-yl)ethyl)benzamide], on SARS-CoV-2 PLpro, the IC50 was in the range of 0.5 to 1 µM. For the same compound, the CC50 at 2 days in series [1] was 64.7 ± 8.94 µM.

With `Cc1ccc(OCCN(C)C)cc1C(=O)N[C@H](C)c1cc(-c2cccc3[nH]ncc23)nc2ccccc12` [Example 50, (R)—N-(1-(2-(1H-indazol-4-yl)quinolin-4-yl)ethyl)-5-(2-(dimethylamino)ethoxy)-2-methylbenzamide], at SARS-CoV-2 PLpro, the IC50 is < 0.5 µM. Besides, the CC50 at 2 days in series [1] worked out at 59.5 ± 25.4 µM.

In the case of `CCn1ccc(-c2cc([C@@H](C)NC(=O)c3cc(N4C[C@H]5C[C@@H]4CN5C)ccc3C)c3ccccc3n2)n1` [Example 107, N—((R)-1-(2-(1-ethyl-1H-pyrazol-3-yl)quinolin-4-yl)ethyl)-2-methyl-5-((1R,4R)-5-methyl-2,5-diazabicyclo[2.2.1]heptan-2-yl)benzamide], the half-inhibitory concentration (IC50) on SARS-CoV-2 PLpro is < 0.5 µM. In addition, the CC50 at 2 days in series [1] turned out to be 22.3 ± 1.39 µM.

As to `Cc1ccc(OCCN(C)C)cc1C(=O)N[C@H](C)c1cc(-c2cnn(C(C)C)c2)nc2ccccc12` [Example 14, (R)-5-(2-(dimethylamino)ethoxy)-N-(1-(2-(1-isopropyl-1H-pyrazol-4-yl)quinolin-4-yl)ethyl)-2-methylbenzamide], at SARS-CoV-2 PLpro, the IC50 is < 0.5 µM. The CC50 at 2 days in series [1] stood at 37.7 ± 5.87 µM.

In the case of `Cc1ccc(OCCN(C)C)cc1C(=O)N[C@H](C)c1cc(OCc2c(F)c(F)c(F)c(F)c2F)nc2ccccc12` [Example 58, (R)-5-(2-(dimethylamino)ethoxy)-2-methyl-N-(1-(2-((perfluorophenyl)methoxy)quinolin-4-yl)ethyl)benzamide], the IC50 at SARS-CoV-2 PLpro is > 5 µM. Moreover, the CC50 at 2 days in series [1] is > 50 µM.

In the case of `Cc1ccc(O[C@H]2CCN(C)C2)cc1C(=O)N[C@H](C)c1cc(-c2cnn(C)c2)nc2ccccc12` [Example 82, 2-methyl-N—((R)-1-(2-(1-methyl-1H-pyrazol-4-yl)quinolin-4-yl)ethyl)-5-(((S)-1-methyl-pyrrolidin-3-yl)oxy)benzamide], at SARS-CoV-2 PLpro, the IC50 is < 0.5 µM. In series [1], the CC50 at 2 days was determined as 48.3 ± 2.9 µM.

With `Cc1ccc(OCCN(C)C)cc1C(=O)N[C@H](C)c1cc(-c2ccc(CN3CCCC3)s2)nc2ccccc12` [Example 51, (R)-5-(2-(dimethylamino)ethoxy)-2-methyl-N-(1-(2-(5-(pyrrolidin-1-ylmethyl)thiophen-2-yl)quinolin-4-yl)ethyl)benzamide], the IC50 at SARS-CoV-2 PLpro was < 0.5 µM. Besides, the CC50 at 2 days in series [1] was determined as 27.1 ± 14 µM.

For `Cc1ccc(N(C)C2CN(C)C2)cc1C(=O)N[C@H](C)c1cc(-c2cnn(C)c2)nc2ccccc12` [Example 88, (R)-2-methyl-5-(methyl(1-methylazetidin-3-yl)amino)-N-(1-(2-(1-methyl-1H-pyrazol-4-yl)quinolin-4-yl)ethyl)benzamide], the half-inhibitory concentration (IC50) on SARS-CoV-2 PLpro fell in the range of 1 to 5 µM. The cytotoxic concentration (CC50) at 2 days in series [1] amounted to 97.4 ± 6.51 µM.

For the compound `Cc1ccc(OCCN(C)C)cc1C(=O)N[C@H](C)c1cc(-c2cccs2)nc2ccccc12` [Example 1, (R)-5-(2-(dimethylamino)ethoxy)-2-methyl-N-(1-(2-(thiophen-2-yl)quinolin-4-yl)ethyl)benzamide], at SARS-CoV-2 PLpro, the IC50 was < 0.5 µM. The CC50 at 2 days in series [1] was 12.2 ± 0.85 µM.

With `Cc1ccc(OCCN(C)C)cc1C(=O)N[C@H](C)c1cc(-c2cnn(C3CC3)c2)nc2ccccc12` [Example 8, (R)—N-(1-(2-(1-cyclopropyl-1H-pyrazol-4-yl)quinolin-4-yl)ethyl)-5-(2-(dimethylamino)ethoxy)-2-methylbenzamide], on SARS-CoV-2 PLpro, the IC50 is < 0.5 µM. Moreover, in series [1], the CC50 at 2 days was 63.1 ± 8.7 µM.

For `Cc1ccc(OCCN(C)C)cc1C(=O)N[C@H](C)c1cc(-c2cnn(CCO)c2)nc2ccccc12` [Example 22, (R)-5-(2-(dimethylamino)ethoxy)-N-(1-(2-(1-(2-hydroxyethyl)-1H-pyrazol-4-yl)quinolin-4-yl)ethyl)-2-methylbenzamide], the IC50 on SARS-CoV-2 PLpro is < 0.5 µM. Further, in series [1], the CC50 at 2 days was found to be 153 ± 43.9 µM.

In the case of `Cc1ccc(OCCN(C)C)cc1C(=O)N[C@H](C)c1cc(-c2cnn(C(C)(C)C)c2)nc2ccccc12` [Example 65, (R)—N-(1-(2-(1-(tert-butyl)-1H-pyrazol-4-yl)quinolin-4-yl)ethyl)-5-(2-(dimethyl-amino)ethoxy)-2-methylbenzamide], on SARS-CoV-2 PLpro, the IC50 was < 0.5 µM. In addition, the CC50 at 2 days in series [1] was found to be 19.1 ± 2.75 µM.

For the compound `Cc1ccc(N(C)C2(C)CN(C)C2)cc1C(=O)N[C@H](C)c1cc(-c2cnn(C)c2)nc2ccccc12` [Example 93, (R)-5-((1,3-dimethylazetidin-3-yl)(methyl)amino)-2-methyl-N-(1-(2-(1-methyl-1H-pyrazol-4-yl)quinolin-4-yl)ethyl)benzamide], at SARS-CoV-2 PLpro, the IC50 was in the range of 1 to 5 µM. Further, the half-maximal cytotoxic concentration (CC50) at 2 days in series [1] was 129 ± 2.32 µM.
